Measurements from patent publication US12653191B2, “Active compound combinations” (Bayer Aktiengesellschaft, priority 2020, dated 2026).
Read-outs that look alike come from different tables or passages of the source.

Columns and labels:
Alternaria alternate = experiment: in vitro-Test with fungal microorganisms, Method A (tables A1-A12); format: cell-based, Alternaria alternata; conditions: Alternaria, applied alone, read-out: Efficacy %
In short: (§1)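 Growth inhibition was measured photometrically at 620 nm 3–5 days after application, with 100% efficacy meaning no growth and 0% meaning growth equal to the untreated control. Fungal spore or mycelium suspension in potato dextrose broth was added onto solvent-evaporated compound and incubated at 20° C and 85% relative humidity.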

Botrytis cinerea [1] = experiment: in vitro-Test with fungal microorganisms, Method A (tables B1-B14); format: cell-based; conditions: Botrytis cinerea
In short: as §1

Cercospora beticola [2] = experiment: in vitro-Test with fungal microorganisms, Method A (tables C1-C10); format: cell-based; conditions: Cercospora beticola, read-out: Efficacy %
In short: as §1

Diaporthe citri = experiment: in vitro-Test with fungal microorganisms, Method A (tables F1-F11); format: cell-based; conditions: Diaporthe citri, read-out: Efficacy
In short: as §1

Fusarium culmorum = experiment: in vitro-Test with fungal microorganisms, Method A (tables G1-G4); format: cell-based
Description: (§2) Example: In Vitro-Test with Fungal Microorganisms
(§3) Wells of 96-well microtiter plates are filled with 10 μl of a preparation of test compound or compound combination in methanol+emulsifier alkylaryl-polyglycol-ether. Thereafter, the solvent is evaporated in a hood. At the next step, 100 μl of liquid potato dextrose medium is given into each well, that has been amended with an appropriate concentration of spores or mycelium suspension of the test fungus.
(§4) With the aid of a photometer, the extinction in all wells is measured at the wavelength of 620 nm.
(§5) The microtiter plates are incubated at 20° C. and 85% relative humidity. The inhibition of growth is determined again photometrically 3-5 days after the application. Efficacy is calculated in relation to the untreated control, 0% efficacy means fungal growth as high as in untreated control while 100% efficacy means no fungal growth is measured.
(§6) The data in tables A1 to A12, B1 to B14, C1 to C10, D1 to D8, E1 to E8, F1 to F11, G1 to G4, H1 to H4 and I1 to I5 were collected according to Method A. The data in tables A13 to A22, B15 to B18, C11 to C20, E9 to E16, F12 to F15, G5 to G15, H5 to H8, I6 to I11 and J1 to J11 were collected according to Method B.

[3] = tested on: Ustilago segetum var. avenae; experiment: in vitro-Test with fungal microorganisms, Method A (tables I1-I5); format: cell-based; conditions: alone, read-out: Efficacy %
Description: as §2, §3, §4, §5, §6

Alternaria alternata = experiment: in vitro-Test with fungal microorganisms, Method B (tables A13-A22); format: cell-based; conditions: Alternaria alternata, read-out: Efficacy
In short: (§7)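 Efficacy scale: 0% means growth equal to the untreated control, 100% means none detected. Compounds are dried from methanol with emulsifier before adding inoculated growth medium; incubation at 20° C., 85% relative humidity for 3 to 7 days precedes photometric inhibition readout.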

Botrytis cinerea [4] = experiment: in vitro-Test with fungal microorganisms, Method B (tables B15-B18); format: cell-based; conditions: Botrytis cinerea, alone, read-out: Efficacy %
Description: as §2
as §3, with “30” for “10”, “200” for “100”, “growth” for “potato dextrose”, “given,” for “given into each well,”
With the aid of a photometer, the extinction in all wells is measured at the wavelength of 600 nm.
The microtiter plates are incubated for 3 to 7 days at 20° C. and 85% relative humidity. After the incubation inhibition of growth is determined photometrically. Efficacy is calculated in relation to the untreated control, 0% efficacy means fungal growth as high as in untreated control while 100% efficacy means no fungal growth is measured.
as §6

Cercospora beticola [5] = experiment: in vitro-Test with fungal microorganisms, Method B (tables C11-C20); format: cell-based; conditions: Cercospora beticola, read-out: Efficacy %
In short: as §7

[6] = tested on: Colletotrichum lindemuthianum; experiment: in vitro-Test with fungal microorganisms, Method A (tables D1-D8); format: cell-based; conditions: Colletotrichum lindemuthianum, read-out: Efficacy %
Description: as §2, §3, §4, §5, §6

Cordana musae [7] = experiment: in vitro-Test with fungal microorganisms, Method A (tables E1-E8); format: cell-based; conditions: Neocordana musae, single substance, read-out: Efficacy %
Description: as §2, §3, §4, §5, §6

Cordana musae [8] = experiment: in vitro-Test with fungal microorganisms, Method B (tables E9-E16); format: cell-based; conditions: Neocordana musae, single active, read-out: Efficacy
In short: as §7

[9] = tested on: Ustilago segetum var. avenae; experiment: in vitro-Test with fungal microorganisms, Method B (tables I6-I11); format: cell-based; conditions: 1 ppm; read-out: Efficacy %
In short: as §7

Colletotrichum coccodes = experiment: in vitro-Test with fungal microorganisms, Method B (tables J1-J11); format: cell-based; conditions: Colletotrichum coccodes, read-out: Efficacy %
In short: as §7

`Cc1cc(C2=NOCC(Cc3ccc(Br)cc3C)N2)c(Oc2cccc(Cl)c2F)nn1` (racemic) [Compound I-300, rac-5-[(4-bromo-2-methylphenyl)methyl]-3-[3-(3-chloro-2-fluorophenoxy)-6-methylpyridazin-4-yl]-5,6-dihydro-4H-1,2,4-oxadiazine] gave an inhibition of growth at 0.1 ppm (Alternaria alternate; 0.1 ppm) of 100%, an inhibition of growth at 0.0008 ppm (Botrytis cinerea [1]; 0.0008 ppm, read-out: Efficacy) of 0% and an inhibition of growth at 0.004 ppm (Botrytis cinerea [1]; 0.004 ppm, read-out: Efficacy) of 0%. The inhibition of growth at 0.02 ppm (Botrytis cinerea [1]; 0.02 ppm, read-out: Efficacy) was 0%, the inhibition of growth at 0.1 ppm (Botrytis cinerea [1]; 0.1 ppm, read-out: Efficacy) was 49% and the inhibition of growth at 0.0008 ppm (Cercospora beticola [2]; 0.0008 ppm alone) was 0%. The inhibition of growth at 0.0008 ppm (Cercospora beticola [2]; 0.0008 ppm) was 0%, the inhibition of growth at 0.004 ppm (Cercospora beticola [2]; 0.004 ppm alone) was 0% and the inhibition of growth at 0.004 ppm (Cercospora beticola [2]; 0.004 ppm) was 0%. For the same compound, the inhibition of growth at 0.02 ppm (Cercospora beticola [2]; 0.02 ppm alone) was 10%, the inhibition of growth at 0.02 ppm (Cercospora beticola [2]; 0.02 ppm) was 10% and the inhibition of growth at 0.1 ppm (Cercospora beticola [2]; 0.1 ppm alone) was 19%. It also gave an inhibition of growth at 0.1 ppm (Cercospora beticola [2]; 0.1 ppm) of 19%, an inhibition of growth at 0.0008 ppm (Diaporthe citri; applied alone, 0.0008 ppm) of 0% and an inhibition of growth at 0.004 ppm (Diaporthe citri; applied alone, 0.004 ppm) of 10%. It also gave an inhibition of growth at 0.02 ppm (Diaporthe citri; applied alone, 0.02 ppm) of 22%, an inhibition of growth at 0.1 ppm (Diaporthe citri; applied alone, 0.1 ppm) of 44% and an inhibition of growth at 0.0008 ppm (Fusarium culmorum; Fusarium culmorum, 0.0008 ppm, alone, read-out: Efficacy) of 2%. For the same compound, the inhibition of growth at 0.004 ppm (Fusarium culmorum; Fusarium culmorum, 0.004 ppm, alone, read-out: Efficacy) was 6%, the inhibition of growth at 0.02 ppm (Fusarium culmorum; Fusarium culmorum, 0.02 ppm, alone, read-out: Efficacy) was 5% and the inhibition of growth at 0.1 ppm (Fusarium culmorum; Fusarium culmorum, 0.1 ppm, alone, read-out: Efficacy) was 2%. It also gave an inhibition of growth at 0.0008 ppm ([3]; 0.0008 ppm) of 0%, an inhibition of growth at 0.004 ppm ([3]; 0.004 ppm) of 0% and an inhibition of growth at 0.02 ppm ([3]; 0.02 ppm) of 0%. The inhibition of growth at 0.1 ppm ([3]; 0.1 ppm) was 0%.
`O=C1c2ccccc2C(=O)N1SC(Cl)(Cl)Cl` [(5.012) folpet, folpet] showed an inhibition of growth at 2 ppm (Alternaria alternate; 2.0 ppm) of 100%, an inhibition of growth at 10 ppm (Alternaria alternate; 10.0 ppm) of 100% and an inhibition of growth at 0.2 ppm (Alternaria alternata) of 6%. The inhibition of growth at 1 ppm (Alternaria alternata) was 99%, the inhibition of growth at 0.008 ppm (Alternaria alternata; single compound, 0.008 ppm) was 6% and the inhibition of growth at 0.04 ppm (Alternaria alternata; single compound, 0.04 ppm) was 3%. For the same compound, the inhibition of growth at 0.2 ppm (Alternaria alternata; single compound) was 7%, the inhibition of growth at 1 ppm (Alternaria alternata; single compound) was 83% and the inhibition of growth at 2 ppm (Botrytis cinerea [1]; alone, 2.0 ppm, read-out: Efficacy %) was 100%. It also gave an inhibition of growth at 10 ppm (Botrytis cinerea [1]; alone, 10.0 ppm, read-out: Efficacy %) of 100%, an inhibition of growth at 0.008 ppm (Botrytis cinerea [4]; 0.008 ppm) of 8% and an inhibition of growth at 0.04 ppm (Botrytis cinerea [4]; 0.04 ppm) of 1%. It also gave an inhibition of growth at 1 ppm (Botrytis cinerea [4]; 1 ppm) of 16%, an inhibition of growth at 0.4 ppm (Cercospora beticola [2]; 0.4 ppm) of 50% and an inhibition of growth at 0.008 ppm (Cercospora beticola [5]; 0.008 ppm) of 7%. It also gave an inhibition of growth at 1 ppm (Cercospora beticola [5]) of 100%, an inhibition of growth at 0.04 ppm (Cercospora beticola [5]; single compound, 0.04 ppm) of 0% and an inhibition of growth at 0.2 ppm (Cercospora beticola [5]; single compound, 0.2 ppm) of 16%. It also gave an inhibition of growth at 1 ppm (Cercospora beticola [5]; single compound) of 86%, an inhibition of growth at 0.08 ppm ([6]; mixing partner alone, 0.08 ppm) of 0% and an inhibition of growth at 0.4 ppm ([6]; mixing partner alone, 0.4 ppm) of 0%. The inhibition of growth at 2 ppm ([6]; mixing partner alone, 2.0 ppm) was 100%, the inhibition of growth at 10 ppm ([6]; mixing partner alone, 10.0 ppm) was 100% and the inhibition of growth at 0.08 ppm ([6]; single active at 0.08 ppm) was 0%. It also gave an inhibition of growth at 0.4 ppm ([6]; single active at 0.4 ppm) of 13%, an inhibition of growth at 2 ppm ([6]; single active at 2.0 ppm) of 98% and an inhibition of growth at 10 ppm ([6]; single active at 10.0 ppm) of 100%. For the same compound, the inhibition of growth at 0.08 ppm (Cordana musae [7]; 0.08 ppm) was 5%, the inhibition of growth at 0.4 ppm (Cordana musae [7]; 0.4 ppm) was 10% and the inhibition of growth at 2 ppm (Cordana musae [7]; 2.0 ppm) was 100%. It also gave an inhibition of growth at 0.008 ppm (Cordana musae [8]; 0.008 ppm) of 0%, an inhibition of growth at 0.04 ppm (Cordana musae [8]; 0.04 ppm) of 0% and an inhibition of growth at 0.2 ppm (Cordana musae [8]; 0.2 ppm) of 17%. For the same compound, the inhibition of growth at 1 ppm (Cordana musae [8]; 1 ppm) was 62%, the inhibition of growth at 0.08 ppm (Diaporthe citri; Table F10, 0.08 ppm alone) was 12% and the inhibition of growth at 2 ppm (Diaporthe citri; Table F10, 2.0 ppm alone) was 99%. For the same compound, the inhibition of growth at 10 ppm (Diaporthe citri; Table F10, 10.0 ppm alone) was 100%, the inhibition of growth at 0.08 ppm (Diaporthe citri; applied alone, 0.08 ppm) was 1% and the inhibition of growth at 0.4 ppm (Diaporthe citri; applied alone, 0.4 ppm) was 56%. The inhibition of growth at 2 ppm (Diaporthe citri; applied alone, 2.0 ppm) was 99%, the Efficacy (Fusarium culmorum; 0.4 ppm alone) was 0% and the Efficacy (Fusarium culmorum; 10.0 ppm, alone) was 100%. The inhibition of growth at 0.08 ppm (Fusarium culmorum; Fusarium culmorum, 0.08 ppm, alone, read-out: Efficacy) was 0%, the inhibition of growth at 2 ppm (Fusarium culmorum; Fusarium culmorum, 2.0 ppm, alone, read-out: Efficacy) was 100% and the inhibition of growth at 0.4 ppm ([3]; 0.4 ppm) was 15%. The inhibition of growth at 2 ppm ([3]; 2.0 ppm) was 100%, the inhibition of growth at 10 ppm ([3]; 10.0 ppm) was 100% and the inhibition of growth at 1 ppm [9] was 6%. For the same compound, the inhibition of growth at 0.008 ppm (Colletotrichum coccodes; 0.008 ppm) was 1%, the inhibition of growth at 0.04 ppm (Colletotrichum coccodes; 0.04 ppm) was 3% and the inhibition of growth at 1 ppm (Colletotrichum coccodes; 1 ppm) was 66%.
